IC50 data for 19 molecules are collected here from patent publication US9670227B2, “Thienopyrimidine derivatives, a process for their preparation and pharmaceutical compositions containing them” (LES LABORATOIRES SERVIER, priority 2013, dated 2017).

The target of one assay is Mcl-1 protein (UniProtKB primary accession number: Q07820) (Homo sapiens, UniProt Q07820). The assay can be described thus: Inhibition of Mcl-1 by fluorescence polarisation, Method 1. The assay is classed as binding. The conditions noted are these: read-out: IC50 (M) Mcl-1 FP. The essentials:
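An 11-point DMSO dilution of compound is mixed with buffer (10 mM HEPES, 150 mM NaCl, 0.05% Tween 20, pH 7.4) carrying 1 nM fluorescein-labelled ligand and 5 nM Mcl-1, final concentrations. Displacement is monitored by fluorescence polarisation.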

The subject of assay [1] is H929 multiple myeloma tumour line. The assay can be described thus: In vitro cytotoxicity, Microculture Tetrazolium Assay. It counts as cell-based. As to conditions: H929 cells, 48 hours exposure, MTT, read-out: IC50 (μM) MTT H929. As to the method:
The cytotoxicity studies were carried out on the H929 multiple myeloma tumour line.
The cells are distributed onto microplates and exposed to the test compounds for 48 hours.

[2] abbreviates: fluorescence polarisation, Method 1, or Method 2.
Where [3] appears, read: fluorescence polarisation test, Method 2 values are underlined in the patent (underlining not visible here).

Like-named read-outs stand apart in the source and are kept apart here.

Chain of Mcl-1 protein (Q07820 whole entry): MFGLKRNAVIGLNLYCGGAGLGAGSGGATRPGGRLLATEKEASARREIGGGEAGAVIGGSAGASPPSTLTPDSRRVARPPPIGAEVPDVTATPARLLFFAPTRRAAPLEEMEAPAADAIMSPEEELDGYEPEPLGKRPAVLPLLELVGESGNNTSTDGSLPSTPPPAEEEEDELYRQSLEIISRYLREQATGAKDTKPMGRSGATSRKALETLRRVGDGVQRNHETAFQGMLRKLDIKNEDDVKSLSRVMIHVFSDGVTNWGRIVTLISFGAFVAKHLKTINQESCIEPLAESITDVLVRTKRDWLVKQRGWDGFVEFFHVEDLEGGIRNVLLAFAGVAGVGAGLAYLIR

As a reminder, the IC50 is the concentration that gives 50% inhibition. For the molecule `COc1ccccc1CC(Oc1ncnc2sc(-c3cc(F)cc(F)c3)c(-c3ccc(OCCN4CCN(C)CC4)c(Cl)c3C)c12)C(=O)O` [Example 527, (2R)-2-{[(5Sa)-5-{3-chloro-2-methyl-4-[2-(4-methylpiperazin-1-yl)ethoxy]phenyl}-6-(3,5-difluorophenyl)thieno[2,3-d]pyrimidin-4-yl]oxy}-3-(2-methoxyphenyl)propanoic acid], the IC50 at Mcl-1 protein (setting [2]) came to 7.1e-08 M; in assay [1] (Homo sapiens, NCI-H929, 48 h), 0.272 µM.
Regarding `Cc1c(-c2c(-c3ccc(F)cc3)sc3ncnc(OC(Cc4ccccc4OCc4cnccn4)C(=O)O)c23)ccc(OCC2CCN(C)C2)c1Cl` [Example 140, (2R)-2-{[(5Sa)-5-(3-chloro-2-methyl-4-{[(3S)-1-methylpyrrolidin-3-yl]methoxy}phenyl)-6-(4-fluorophenyl)thieno[2,3-d]pyrimidin-4-yl]oxy}-3-[2-(pyrazin-2-ylmethoxy)phenyl]propanoic acid], the values for the IC50 (at Mcl-1 protein (setting [3]); in assay [1]) were 2.2e-08 M and 0.205 µM, respectively.
Consider `Cc1c(-c2c(-c3ccn(C)n3)sc3ncnc(OC(Cc4ccccc4)C(=O)O)c23)ccc(OCCN2CCN(C)CC2)c1Cl` [Example 506, (2R)-2-{[(5Sa)-5-{3-chloro-2-methyl-4-[2-(4-methylpiperazin-1-yl)ethoxy]phenyl}-6-(1-methyl-1H-pyrazol-3-yl)thieno[2,3-d]pyrimidin-4-yl]oxy}-3-phenylpropanoic acid], for which the IC50 on Mcl-1 protein (setting [2]) is 7.5e-08 M; in assay [1] (Homo sapiens, NCI-H929, 48 h), 8.29 µM.
The matching figures for `COc1ccccc1CC(Oc1ncnc2sc(-c3cccc(OCCN4CCOCC4)c3)c(-c3ccc(OCCN4CCN(C)CC4)c(Cl)c3C)c12)C(=O)O` [Example 588, (2R)-2-[((5Sa)-5-{3-chloro-2-methyl-4-[2-(4-methylpiperazin-1-yl)ethoxy]phenyl}-6-{3-[2-(morpholin-4-yl)ethoxy]phenyl}thieno[2,3-d]pyrimidin-4-yl)oxy]-3-(2-methoxyphenyl)propanoic acid]: 8e-09 M and 0.256 µM.
In the case of `Cc1c(-c2c(-c3ccc(Cl)o3)sc3ncnc(OC(Cc4ccccc4OCC4CCCO4)C(=O)O)c23)ccc(OCCN2CCN(C)CC2)c1Cl` [Example 377, (2R)-2-{[6-(5-chlorofuran-2-yl)-(5Sa)-5-{3-chloro-2-methyl-4-[2-(4-methylpiperazin-1-yl)ethoxy]phenyl}thieno[2,3-d]pyrimidin-4-yl]oxy}-3-{2-[(2S)-tetrahydrofuran-2-ylmethoxy]phenyl}propanoic acid], the IC50 on Mcl-1 protein (setting [3]) stood at 3.8e-09 M; in assay [1], 0.047 µM.
On to `CC#Cc1sc2ncnc(OC(Cc3ccccc3OC)C(=O)O)c2c1-c1ccc(OCCN(C)C)c(Cl)c1C` [Example 467, (2R)-2-{[(5Sa)-5-{3-chloro-4-[2-(dimethylamino)ethoxy]-2-methylphenyl}-6-(prop-1-yn-1-yl)thieno[2,3-d]pyrimidin-4-yl]oxy}-3-(2-methoxyphenyl)propanoic acid], for which the IC50 on Mcl-1 protein (setting [2]) worked out at 1.1e-08 M; in assay [1] (Homo sapiens, NCI-H929, 48 h) it was 0.502 µM.
The matching figures for `COCOc1cc(F)ccc1CC(Oc1ncnc2sc(-c3ccc(F)o3)c(-c3ccc(OCCN4CCN(C)CC4)c(Cl)c3C)c12)C(=O)O` [Example 690, (2R)-2-{[(5Sa)-5-{3-chloro-2-methyl-4-[2-(4-methylpiperazin-1-yl)ethoxy]phenyl}-6-(5-fluorofuran-2-yl)thieno[2,3-d]pyrimidin-4-yl]oxy}-3-[4-fluoro-2-(methoxymethoxy)phenyl]propanoic acid]: 2.3e-08 M and 0.178 µM.
The matching figures for `CCc1sc2ncnc(OC(Cc3ccccc3)C(=O)O)c2c1-c1ccc(OCCCS(C)(=O)=O)c(Cl)c1C` [Example 406, (2R)-2-[((5Sa)-5-{3-chloro-2-methyl-4-[3-(methylsulfonyl)propoxy]phenyl}-6-ethylthieno[2,3-d]pyrimidin-4-yl)oxy]-3-phenylpropanoic acid]: 3.5e-08 M and 21.9 µM.
Take `Cc1c(-c2c(-c3ccc(F)o3)sc3ncnc(OC(Cc4ccccc4OCc4ccnc(OCC(F)(F)F)n4)C(=O)O)c23)ccc(OCCN2CCN(C)CC2)c1Cl` [Example 178, (2R)-2-{[(5Sa)-5-{3-chloro-2-methyl-4-[2-(4-methylpiperazin-1-yl)ethoxy]phenyl}-6-(5-fluorofuran-2-yl)thieno[2,3-d]pyrimidin-4-yl]oxy}-3-(2-{[2-(2,2,2-trifluoroethoxy)pyrimidin-4-yl]methoxy}phenyl)propanoic acid]: the IC50 on Mcl-1 protein (setting [3]) was 6.3e-09 M; in assay [1] (Homo sapiens, NCI-H929, 48 h), 0.002 µM.
The like results for `Cc1c(-c2c(-c3ccco3)sc3ncnc(OC(Cc4ccccc4OCc4ncc(-c5ccccc5)cn4)C(=O)O)c23)ccc(OCCN2CCN(C)CC2)c1Cl` [Example 283, (2R)-2-{[(5Sa)-5-{3-chloro-2-methyl-4-[2-(4-methylpiperazin-1-yl)ethoxy]phenyl}-6-(furan-2-yl)thieno[2,3-d]pyrimidin-4-yl]oxy}-3-{2-[(5-phenylpyrimidin-2-yl)methoxy]phenyl}propanoic acid] were, in that order, 2.6e-08 M and 0.25 µM.
The matching figures for `Cc1c(-c2c(-c3ccc(F)cc3)sc3ncnc(OC(Cc4ccccc4OCc4ccnn4CC(F)(F)F)C(=O)O)c23)ccc(OCCN(C)C)c1Cl` [Example 132, (2R)-2-{[(5Sa)-5-{3-chloro-4-[2-(dimethylamino)ethoxy]-2-methylphenyl}-6-(4-fluorophenyl)thieno[2,3-d]pyrimidin-4-yl]oxy}-3-(2-{[1-(2,2,2-trifluoroethyl)-1H-pyrazol-5-yl]methoxy}phenyl)propanoic acid]: 4.8e-09 M and 0.102 µM.
Consider `CCN1CCN(CCOc2ccc(-c3c(-c4ccco4)sc4ncnc(OC(Cc5ccccc5OC)C(=O)O)c34)c(C)c2Cl)CC1` [Example 322, (2R)-2-{[(5Sa)-5-{3-chloro-4-[2-(4-ethylpiperazin-1-yl)ethoxy]-2-methylphenyl}-6-(furan-2-yl)thieno[2,3-d]pyrimidin-4-yl]oxy}-3-(2-methoxyphenyl)propanoic acid], for which the half-maximal inhibitory concentration (IC50) at Mcl-1 protein (setting [3]) came to 4.3e-09 M; in assay [1] (Homo sapiens, NCI-H929, 48 h), 0.113 µM.
For the molecule `CCCCn1nccc1COc1ccccc1CC(Oc1ncnc2sc(CCCOC)c(-c3ccc(OCCN4CCN(C)CC4)c(Cl)c3C)c12)C(=O)O` [Example 617, (2R)-3-{2-[(1-butyl-1H-pyrazol-5-yl)methoxy]phenyl}-2-{[(5Sa)-5-{3-chloro-2-methyl-4-[2-(4-methylpiperazin-1-yl)ethoxy]phenyl}-6-(3-methoxypropyl)thieno[2,3-d]pyrimidin-4-yl]oxy}propanoic acid], the IC50 turned out to be 5.4e-09 M at Mcl-1 protein (setting [2]) and 0.277 µM in assay [1] (Homo sapiens, NCI-H929, 48 h).
On to `COc1ccc(-c2nccc(COc3ccccc3CC(Oc3ncnc4sc(-c5ccc(F)cc5)c(-c5ccc(OCCN6CCN(C)CC6)c(Cl)c5C)c34)C(=O)O)n2)cc1` [Example 107, (2R)-2-{[(5Sa)-5-{3-chloro-2-methyl-4-[2-(4-methylpiperazin-1-yl)ethoxy]phenyl}-6-(4-fluorophenyl)thieno[2,3-d]pyrimidin-4-yl]oxy}-3-(2-{[2-(4-methoxyphenyl)pyrimidin-4-yl]methoxy}phenyl)propanoic acid], for which the IC50 on Mcl-1 protein (setting [3]) came to 5.3e-09 M; in assay [1] (Homo sapiens, NCI-H929, 48 h), 0.007 µM.
The matching figures for `Cc1c(-c2c(-c3ccc(F)o3)sc3ncnc(OC(Cc4ccccc4OCC(=O)NCCc4ccccc4)C(=O)O)c23)ccc(OCCN2CCN(C)CC2)c1Cl` [Example 155, (2R)-2-{[(5Sa)-5-{3-chloro-2-methyl-4-[2-(4-methylpiperazin-1-yl)ethoxy]phenyl}-6-(5-fluorofuran-2-yl)thieno[2,3-d]pyrimidin-4-yl]oxy}-3-(2-{2-oxo-2-[(2-phenylethyl)amino]ethoxy}phenyl)propanoic acid]: 7.6e-09 M and 0.189 µM.
Consider `Cc1csc(-c2sc3ncnc(OC(Cc4ccccc4)C(=O)O)c3c2-c2ccc(OCCN3CCN(C)CC3)c(Cl)c2C)c1` [Example 495, (2R)-2-{[(5Sa)-5-{3-chloro-2-methyl-4-[2-(4-methylpiperazin-1-yl)ethoxy]phenyl}-6-(4-methylthiophen-2-yl)thieno[2,3-d]pyrimidin-4-yl]oxy}-3-phenylpropanoic acid], for which the IC50 at Mcl-1 protein (setting [2]) came out at 3.6e-08 M; in assay [1] (Homo sapiens, NCI-H929, 48 h), 1.19 µM.
On to `COc1ccccc1CC(Oc1ncnc2sc(-c3ccco3)c(-c3ccc(OCC4CCCCN4C)c(Cl)c3C)c12)C(=O)O` (single isomer, unassigned) [Example 309, (2R)-2-{[(5Sa)-5-{3-chloro-2-methyl-4-[((2S or R)-1-methylpiperidin-2-yl)methoxy]phenyl}-6-(furan-2-yl)thieno[2,3-d]pyrimidin-4-yl]oxy}-3-(2-methoxyphenyl)propanoic acid], for which the IC50 at Mcl-1 protein (setting [3]) is 1e-08 M; in assay [1] (Homo sapiens, NCI-H929, 48 h) it was 1.48 µM.
Turning to `COc1ccccc1CC(Oc1ncnc2sc(-c3ccco3)c(-c3ccc(OC4CCCN(C)C4)c(Cl)c3C)c12)C(=O)O` (single isomer, unassigned) [Example 301, (2R)-2-{[(5Sa)-5-{3-chloro-2-methyl-4-[((3R or S)-1-methylpiperidin-3-yl)oxy]phenyl}-6-(furan-2-yl)thieno[2,3-d]pyrimidin-4-yl]oxy}-3-(2-methoxyphenyl)propanoic acid], the IC50 was found to be 1.2e-08 M at Mcl-1 protein (setting [3]) and 0.108 µM in assay [1].
For `COc1ccccc1CC(Oc1ncnc2sc(-c3ccco3)c(-c3ccc(OCCC4CCN(C)CC4)c(Cl)c3C)c12)C(=O)O` [Example 317, (2R)-2-{[(5Sa)-5-{3-chloro-2-methyl-4-[2-(1-methylpiperidin-4-yl)ethoxy]phenyl}-6-(furan-2-yl)thieno[2,3-d]pyrimidin-4-yl]oxy}-3-(2-methoxyphenyl)propanoic acid], the IC50 was 1.8e-08 M at Mcl-1 protein (setting [3]) and 0.852 µM in assay [1] (Homo sapiens, NCI-H929, 48 h).
